Where two headings read alike, the source gives them in different places. Each block holds one compound with its values, some of them ahead of it.
Tests used:
HCV genotype 1b replicon = test: microbe, parasite or virus in culture; assay type: cell-based, hepatitis C virus
HCoV-229E = test: Anti-human coronavirus 229E activity in MRC5 cells; assay type: cell-based; conditions: 72 h, viral cytopathic effect
in vitro [1] = conditions: human
in vitro [2] = conditions: human; remark: listed apart in the source
CypB = target: T1, CypB (Homo sapiens, UniProt P23284); test: biochemical; assay type: biochemical
T1 construct: hexahistidine tag (His-Tag) (C); made in house; host or cells: E. coli C41(DE3)
Procedure: (§1) CypA and CypB proteins carrying a hexahistidine tag (His-Tag) at their carboxy terminus were expressed in E. coli and purified. Briefly, cultures of C41(DE3) cells were grown at 37 °C for 1 h until the culture reached an OD of 0.6 at 600 nm and then induced with 1 mM isopropyl-β-D-thiogalactopyranoside for 4 h at 37 °C (CypA) or overnight at 22 °C (CypB). Cell pellets were resuspended in a lysis buffer 20 mM NaH2PO4 pH 7.8, 300 mM NaCl, 7 mM β-mercaptoethanol, 1 mg ml^−1 lysozyme, 0.1 U μl^−1 desoxyribonuclease and complete protease inhibitor tablets (Roche Diagnostics Corporation, Indianapolis, Indiana). […] The bound protein was eluted in 1 ml fractions with a buffer composed of 20 mM NaH2PO4 pH 7.8, 300 mM NaCl, 250 mM imidazole, 7 mM β-mercaptoethanol and 10% glycerol, monitored by the Bradford colorimetric assay. The purity of each cyclophilin was determined by Coomassie-stained SDS–PAGE analysis.

CypA = target: T2, CypA (Homo sapiens, UniProt P62937); test: PPIase enzyme assay (chymotrypsin-coupled), CypA; assay type: biochemical; conditions: 20 °C, mean±s.d.
T2 construct: hexahistidine tag (His-Tag) (C); made in house; host or cells: E. coli C41(DE3)
Procedure: as §1

CypD = CypD (Homo sapiens, UniProt P30405, K175I); test: PPIase enzyme assay (chymotrypsin-coupled), CypD; conditions: for LE (ligand efficiency): Supplementary Figure 1, NMR fragment hits
[3] = target: cyclophilin PPIase activity; test: PPIase enzyme assay, cyclophilin not specified; assay type: biochemical, human; conditions: compounds lacking the ester function; read-out: cyclophilin inhibition IC50
HIV-IIIb = test: Anti-HIV activity in MT4 cells; assay type: cell-based, human immunodeficiency virus; conditions: 5 days
Huh7 cells = test: Cellular toxicity in Huh7 replicon cells; conditions: read-out: HCV genotype 1b replicon CC50; Huh7 cells
MRC5 cells = test: Cellular toxicity in MRC5 cells; conditions: read-out: MRC5 cells CC50; MRC5 cells
MT4 cells = test: Cytotoxicity in uninfected MT4 cells; conditions: read-out: MT4 cells CC50
calcineurin = test: Calcineurin phosphatase assay; assay type: biochemical; conditions: binary complex with CypA, 1:1 molar ratio
Procedure: The inhibition of calcineurin phosphatase activity was measured by measuring the dephosphorylation of p-nitrophenyl phosphate (R&D Systems, Minneapolis, USA), according to the manufacturer’s instructions. […] After p-nitrophenyl phosphate addition, the reaction was run for 35 min at 37 °C. The reaction was terminated by addition of BIOMOL green reagent and OD was measured at 630 nm. The results are the means of three independent experiments performed in duplicate. They are presented as the percentage of calcineurin activity relative to that in the inhibitor-free control.

mPTP = tested on: mPTP; parameters: method as in Panel M, Ahmed-Belkacem A, et al., manuscript in preparation; conditions: as a result of CypD inhibition; ref Panel M, Ahmed-Belkacem A, et al., manuscript in preparation; cited from earlier work
[4] = tested on: IL-2 production in Jurkat cells; test: Inhibition of IL-2 production in Jurkat cells; assay type: cell-based; conditions: stimulated Jurkat cells
[5] = Cellular toxicity in Huh7 replicon cells; conditions: human, Huh7 cells with HCV genotype 1b replicon
[6] = Cellular toxicity in MRC5 cells; conditions: human, MRC-5 cells
[7] = Hepatitis C virus, Huh-7, 72 h, read-out: HCV genotype 1b replicon EC50
[8] = PPIase enzyme assay, 20 °C, mean±s.d., read-out: CypB IC50
[9] = read-out: CypD IC50, PPIase enzyme assay, 20 °C, mean±s.d.
[10] = Huh7 cells, 3 days, HCV RNA, read-out: HCV genotype 1b replicon EC50
[11] = wild-type genotype 1b replicon, comparison with mutated replicons (Table 3), read-out: EC50 HCV (WT) subgenomic replicon

T2 sequence (P62937 whole entry): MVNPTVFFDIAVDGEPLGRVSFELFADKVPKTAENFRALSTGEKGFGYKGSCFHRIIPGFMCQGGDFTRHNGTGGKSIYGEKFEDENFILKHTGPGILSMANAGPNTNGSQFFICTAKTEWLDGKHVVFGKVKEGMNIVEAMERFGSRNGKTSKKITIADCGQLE
T1 sequence (P23284 34-216): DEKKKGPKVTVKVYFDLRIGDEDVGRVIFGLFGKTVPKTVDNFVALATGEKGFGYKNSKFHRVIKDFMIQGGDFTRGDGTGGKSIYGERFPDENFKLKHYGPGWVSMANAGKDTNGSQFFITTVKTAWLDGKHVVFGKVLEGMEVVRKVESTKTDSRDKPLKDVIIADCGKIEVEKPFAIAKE
Chain of CypD (P30405 44-207 K175I): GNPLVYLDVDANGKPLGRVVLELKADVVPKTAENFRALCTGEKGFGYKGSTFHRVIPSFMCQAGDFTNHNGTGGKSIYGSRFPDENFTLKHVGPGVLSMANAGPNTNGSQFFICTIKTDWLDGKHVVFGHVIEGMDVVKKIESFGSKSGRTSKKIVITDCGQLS

Compound: C/C=C/C[C@@H](C)[C@@H](O)[C@H]1C(=O)N[C@@H](CC)C(=O)N(C)[C@H](C)C(=O)N(CC)[C@@H](C(C)C)C(=O)N[C@@H](C(C)C)C(=O)N(C)[C@@H](CC(C)C)C(=O)N[C@@H](C)C(=O)N[C@H](C)C(=O)N(C)[C@@H](CC(C)C)C(=O)N(C)[C@@H](CC(C)C)C(=O)N(C)[C@@H](C(C)C)C(=O)N1C [Alisporivir, alisporivir, reference compound]
EC50 (HCV genotype 1b replicon; [7]): 0.01 ± 0.0007 µM
EC50 (HCV genotype 1b replicon; Hepatitis C virus, Huh-7, read-out: EC50 HCV (WT) subgenomic replicon): 0.04 ± 0.0005 µM
EC50 (HCoV-229E; Human coronavirus 229E): 2.6 ± 0.6 µM
CC50 (in vitro [1]): 32.3 ± 22 µM
CC50 at 72 h (in vitro [2]): 9.7 ± 2.2 µM
IC50 (CypB): 0.04 ± 0.012 µM
IC50 (CypA): 0.07 ± 0.003 µM
IC50 (CypD): 0.03 ± 0.005 µM

Compound: Nc1ccc(CNC(=O)NCC(=O)N2CCCC2)cc1 [Compound 23]
IC50 (CypB; [8]): > 500 µM
IC50 (CypA): > 500 µM
IC50 (CypD; [9]): > 500 µM
IC50 [3]: > 500 µM

Compound: COc1ccccc1C1CCCN1C(=O)CNC(=O)NCc1ccc(N)cc1 (stereo not drawn) [Compound 24]
IC50 (CypB; [8]): 1.2 ± 0.1 µM
IC50 (CypA): 2.8 ± 0.6 µM
IC50 (CypD; [9]): 11.4 ± 3 µM

Compound: Nc1ccc(CNC(=O)NCC(=O)N2CCCC2c2ccccc2Cl)cc1 (stereo not drawn) [Compound 25]
IC50 (CypB; [8]): 3.7 ± 1.4 µM
IC50 (CypA): 3.4 ± 0.7 µM
IC50 (CypD; [9]): 6.2 ± 2.3 µM

Compound: Nc1ccc(CNC(=O)NCC(=O)N2CCCC2c2ccccc2Br)cc1 (stereo not drawn) [Compound 26]
EC50 (HCV genotype 1b replicon; [10]): 6 ± 0.7 µM
EC50 (HCoV-229E): 66.3 ± 24 µM
EC50 (HIV-IIIb): 3.6 ± 0.8 µM
CC50 (Huh7 cells): > 100 µM
CC50 (MRC5 cells): > 100 µM
CC50 (MT4 cells): > 53 µM

Compound: CSc1ccccc1C1CCCN1C(=O)CNC(=O)NCc1ccc(N)cc1 (stereo not drawn) [Compound 27]
EC50 (HCV genotype 1b replicon; [10]): 2.7 ± 2.5 µM
EC50 (HCV genotype 1b replicon; [11]): 5.6 ± 0.7 µM
EC50 (HCoV-229E): 34.6 ± 18.3 µM
IC50 (CypA): 0.4 ± 0.1 µM
EC50 (HIV-IIIb): 6.8 ± 2.3 µM
IC50 (CypD; [9]): 0.6 ± 0.1 µM
CC50 (Huh7 cells): > 100 µM
CC50 (MRC5 cells): > 100 µM
CC50 (MT4 cells): > 53 µM

Compound: Nc1ccc(CNC(=O)NCC(=O)N2CCCC2c2cccc3ccccc23)cc1 (stereo not drawn) [Compound 28]
IC50 (CypB; [8]): 1.8 ± 0.9 µM
IC50 (CypA): 1.5 ± 0.5 µM
IC50 (CypD; [9]): 1.4 ± 0.2 µM

Compound: CSc1ccccc1C1CCCN1C(=O)C(NC(=O)NCc1ccc(N)cc1)c1ccccc1 (stereo not drawn) [Compound 31]
inhibition of calcineurin phosphatase activity (calcineurin): no inhibition was observed
EC50 fold higher than the EC50 of alisporivir (HCV genotype 1b replicon; HCV genotype 1b replicon, Huh7 cells): ~40
EC50 (HCV genotype 1b replicon; [10]): 0.4 ± 0.3 µM
EC50 (HCV genotype 1b replicon; [11]): 0.3 ± 0.16 µM
EC50 (HCoV-229E): 44.7 ± 2.2 µM
IC50 (CypB; [8]): 0.08 ± 0.04 µM
mPTP opening (mPTP): inhibits mPTP opening
IC50 (CypA): 0.1 ± 0.07 µM
IC50 (CypD; [9]): 0.2 ± 0.08 µM
CC50 (Huh7 cells): > 100 µM
CC50 (MRC5 cells): > 100 µM
EC50 [4]: > 20 µM

Compound: CCOC(=O)CNC(=O)NC1CCc2ccc(N)cc21 (stereo not drawn) [Compound 32]
EC50 (HCV genotype 1b replicon; [7]): 8 ± 1.3 µM
EC50 (HCoV-229E; Human coronavirus 229E): 71.5 ± 4.3 µM
IC50 (CypB; [8]): 8.7 ± 1.5 µM
IC50 (CypA): 7.4 ± 6.8 µM
IC50 (CypD): 12.8 ± 2.5 µM
CC50 [5]: > 100 µM
CC50 at 72 h [6]: > 100 µM

% CypD inhibition (%I) at 1 mM (CypD): 40%
LE (ligand efficiency) (CypD): < 0.29
Compound: COC(=O)CS(=O)(=O)c1ccccc1 [Fragment 1]

% CypD inhibition (%I) at 1 mM (CypD): 2%
Compound: O=S1(=O)CC=CC1 [Fragment 2]

% CypD inhibition (%I) at 1 mM (CypD): 32%
LE (ligand efficiency) (CypD): < 0.42
Compound: Nc1ccc(C(=O)O)cc1 [Fragment 3]

% CypD inhibition (%I) at 1 mM (CypD): 32%
LE (ligand efficiency) (CypD): < 0.46
Compound: ON=Cc1ccccc1 [Fragment 8]

% CypD inhibition (%I) at 1 mM (CypD): 39%
LE (ligand efficiency) (CypD): < 0.24
Compound: Nc1ccc(S(=O)(=O)NC(=O)c2ccccc2)cc1 [Fragment 9]

Compound: O=CN1CCCC1 [Fragment 13]
IC50 (CypB; [8]): > 5000 µM
IC50 (CypA): > 5000 µM
IC50 (CypD; [9]): > 5000 µM

Compound: O=C(NC(=O)c1c(F)cccc1Cl)NC1c2ccccc2-c2ccccc21 [TMN-355, reference compound]
EC50 (HCV genotype 1b replicon; [10]): > 50 µM
IC50 (CypB; [8]): > 100 µM
IC50 (CypD; [9]): > 100 µM
CC50 (Huh7 cells): 4.48 ± 2.1 µM
CC50 (MRC5 cells): 1.04 ± 0.46 µM

Source: PMC5036131, “Fragment-based discovery of a new family of non-peptidic small-molecule cyclophilin inhibitors with potent antiviral activities” (Nature Communications, 2016)
